From patent publication US20200384161A1, “COMPOSITE ANTI-RESTENOSIS DRUG FOR CORONARY DRUG-ELUTING STENT AND CONTROLLED RELEASE SYSTEM THEREOF” (XINXIN MEDICAL TECHNOLOGY (SHANGHAI) CO. LTD, priority 2017, published 2020)

Legend:
VSMCs = details: Li Hui et al. 2010; cited from earlier work
[1] = test system: primary smooth muscle cells of porcine coronary vessels; assay: In vitro effect of arsenic trioxide on primary porcine coronary vascular smooth muscle cells (total cell number); assay type: cell-based
Source text: (§1) FIGS. 1 and 2 show the effects of arsenic trioxide on primary smooth muscle cells and primary endothelial cells of porcine coronary vessels in in vitro experiments. In the figures, the vertical axis represents the total number of cells in the wells of the culture plate, and the horizontal axis represents the concentration of the arsenic trioxide solution. Each curve represents the effect of arsenic trioxide at various concentrations on apoptosis (decrease in total number of cells) at a given time. […] However, for smooth muscle cells, cells apoptosis began even at low concentrations (3 μM) from Day 2 (FIG. 1). […] Arsenic trioxide may induce apoptosis of smooth muscle cells while having poor inhibitory effect on endothelial cells or even promoting their growth.

[2] = test system: primary endothelial cells of porcine coronary vessels; assay: In vitro effect of arsenic trioxide on primary porcine coronary endothelial cells (total cell number); assay type: cell-based
Source text: as §1

[3] = cited from earlier work

arsenic trioxide
mitochondrial transmembrane potential (Δψm) (VSMCs): could induce a decrease of mitochondrial transmembrane potential | concentration of arsenic trioxide at which smooth muscle cell apoptosis began ([1]; from Day 2, decrease in total number of cells (FIG. 1)): 3 µM | pro-apoptotic effect on smooth muscle cells ([1]; when it reaches a certain dose): strong pro-apoptotic effect | pro-apoptotic effect on endothelial cells [2]: not obvious | proliferation of endothelial cells ([2]; FIG. 2): promoting proliferation of endothelial cell to a certain extent | effect on endothelial cells ([2]; at a concentration of 12 μM or below (FIG. 2)): little effect | effect on endothelial cell growth ([2]; first to the third day upon drug action): stimulation of growth | solubility in common solvents ([3]; common (organic) solvents such as ethanol): cannot be dissolved | solubility in water ([3]; only one crystal form out of three): slightly soluble
